The target of this test is T1, human 11βHSD1 enzyme (Homo sapiens, UniProt P28845).
T1 construct: baculovirus expressed N terminal 6-His tagged full length human 11βHSD1 enzyme; 6-His (N); made in house
The experiment in a line: 11βHSD1 cortisone to cortisol conversion, competitive HTRF assay. It counts as biochemical. The conditions noted are these: for inhibition at 30 µM: human 11-βHSD, test concentration of 30 μM of compound. On the procedure:
The evaluation of compounds described herein was carried out using a baculovirus expressed N terminal 6-His tagged full length human 11βHSD1 enzyme(*1). The enzyme was purified from a detergent solubilised cell lysate, using a copper chelate column. Inhibitors of 11βHSD1 reduce the conversion of cortisone to cortisol, which is identified by an increase in signal, in the above assay.
Compounds to be tested were dissolved in dimethyl sulphoxide (DMSO) to 10 mM and diluted further in assay buffer containing 1% DMSO to 10 fold the final assay concentration. Diluted compounds were then plated into black 384 well plates (Matrix, Hudson N.H., USA).
Fluorescence at 665 nm and 620 nm was measured and the 665 nm:620 nm ratio calculated using an Envision plate reader.

This note sets out measurements from US20090264401A1, “SUBSTITUTED PYRIMIDIN-5-CARBOXAMIDES 281” (AstraZeneca AB, priority 2008, published 2009).

T1 sequence (P28845 whole entry): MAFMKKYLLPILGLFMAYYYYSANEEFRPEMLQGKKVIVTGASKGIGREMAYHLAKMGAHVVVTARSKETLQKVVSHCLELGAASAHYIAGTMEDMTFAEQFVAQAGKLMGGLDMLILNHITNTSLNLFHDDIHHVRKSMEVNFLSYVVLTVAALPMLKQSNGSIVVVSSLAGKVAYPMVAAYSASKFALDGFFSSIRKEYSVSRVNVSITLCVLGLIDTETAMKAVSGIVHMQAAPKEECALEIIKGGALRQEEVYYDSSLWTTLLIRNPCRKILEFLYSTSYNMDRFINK

Regarding `O=C(N[C@H]1C2CC3CC1C[C@@](O)(C3)C2)c1cnc(NC2CC2)nc1C1CCCC1` [Example 122, 4-cyclopentyl-2-(cyclopropylamino)-N-[(2r,5s)-5-hydroxyadamantan-2-yl]pyrimidine-5-carboxamide], the inhibition at 30 µM is 97.5%.
On the same count and under the same terms, with `CN(C)c1ncc(C(=O)N[C@H]2C3CC4CC2C[C@@](O)(C4)C3)c(C2CCCC2)n1` [Example 133, 4-cyclopentyl-2-dimethylamino-N-[(2r,5s)-5-hydroxyadamantan-2-yl]pyrimidine-5-carboxamide] the figure was 94%; with `CC(C)(C)c1nc(N2CCOCC2)ncc1C(=O)NC1C2CC3CC(C2)CC1C3` (stereo not drawn) [Example 14, N-(2-Adamantyl)-4-tert-butyl-2-morpholin-4-ylpyrimidine-5-carboxamide], 108%; with `O=C(N[C@H]1C2CC3CC1C[C@@](O)(C3)C2)c1cnc(N2CCSCC2)nc1C1CCC1` [Example 41, 4-Cyclobutyl-N-[(2r,5s)-5-hydroxyadamantan-2-yl]-2-thiomorpholin-4-ylpyrimidine-5-carboxamide], 94%.
Regarding `C[C@@H]1CN(c2ncc(C(=O)N[C@H]3C4CC5CC3C[C@@](O)(C5)C4)c(C3CCC3)n2)C[C@@H](C)O1` [Example 101, 4-cyclobutyl-2-[(2R,6R)-2,6-dimethylmorpholin-4-yl]-N-[(2r,5s)-5-hydroxyadamantan-2-yl]pyrimidine-5-carboxamide], the inhibition at 30 µM was 102%.
As to `CCOc1nc(OC2CCC2)ncc1C(=O)N[C@H]1C2CC3CC1C[C@@](O)(C3)C2` [Example 213, 2-(cyclobutyloxy)-4-ethoxy-N-[(2r,5s)-5-hydroxytricyclo[3.3.1.13,7]dec-2-yl]pyrimidine-5-carboxamide], the inhibition at 30 µM was determined as 107%.
Consider `NC1(c2ncc(C(=O)N[C@H]3C4CC5CC3C[C@@](O)(C5)C4)c(C3CCCC3)n2)CC1` [Example 151, 2-(1-Aminocyclopropyl)-4-cyclopentyl-N-[(2r,5s)-5-hydroxyadamantan-2-yl]pyrimidine-5-carboxamide], for which the inhibition at 30 µM was found to be 101%.
Regarding `CC(C)Oc1ncc(C(=O)N[C@H]2C3CC4CC2C[C@@](O)(C4)C3)c(C2CCCO2)n1` (stereo partly drawn) [Example 165], the inhibition at 30 µM came out at 105%.
For the compound `O=C(N[C@H]1C2CC3CC1C[C@@](O)(C3)C2)c1cnc(NC2CCC2)nc1[C@H]1CCCO1` [Example 175, 2-(cyclobutaylamino)-N-[(2r,5s)-5-hydroxyadamantan-2-yl]-4-[(2R)-oxolan-2-yl]pyrimidine-5-carboxamide], the inhibition at 30 µM came to 103%.
Still for that read-out and setting: with `CN(C)c1ncc(C(=O)N[C@H]2C3CC4CC2C[C@@](O)(C4)C3)c(N(C)C)n1` [Example 199, 2,4-bis(dimethylamino)-N-[(2r,5s)-5-hydroxyadamantan-2-yl]pyrimidine-5-carboxamide] the figure was 96.8%; with `O=C(N[C@H]1C2CC3CC1C[C@@](O)(C3)C2)c1cnc(OC2CCC2)nc1C1CCCC1` [Example 111, 2-cyclobutyloxy-4-cyclopentyl-N-[(2r,5s)-5-hydroxyadamantan-2-yl]pyrimidine-5-carboxamide], 108%.
In the case of `CCCSc1ncc(C(=O)N[C@H]2C3CC4CC2C[C@@](O)(C4)C3)c(N2C[C@@H](C)O[C@@H](C)C2)n1` [Example 24, 4-[(2S,6R)-2,6-Dimethylmorpholin-4-yl]-N-[(2r,5s)-5-hydroxyadamantan-2-yl]-2-propylsulfanylpyrimidine-5-carboxamide], the inhibition at 30 µM came out at 68%.
Consider `CN(C)c1ncc(C(=O)N[C@H]2C3CC4CC2C[C@@](O)(C4)C3)c(C2CCC2)n1` [Example 86, 4-cyclobutyl-2-(dimethylamino)-N-[(2r,5s)-5-hydroxyadamantan-2-yl]pyrimidine-5-carboxamide], for which the inhibition at 30 µM is 97%.
Turning to `C[C@@H]1CN(CCNc2ncc(C(=O)N[C@H]3C4CC5CC3C[C@@](O)(C5)C4)c(C3CCCC3)n2)C[C@H](C)O1` [Example 148, 4-cyclopentyl-2-({2-[(2R,6S)-2,6-dimethylmorpholin-4-yl]ethyl}amino)-N-[(2r,5s)-5-hydroxytricyclo[3.3.1.13,7]dec-2-yl]pyrimidine-5-carboxamide], the inhibition at 30 µM came to 102%.
On the same count and under the same terms, in the case of `O=C(N[C@H]1C2CC3CC1C[C@@](O)(C3)C2)c1cnc(N2CCSCC2)nc1C1CC1` [Example 35, 4-Cyclopropyl-N-[(2r,5s)-5-hydroxyadamantan-2-yl]-2-thiomorpholin-4-ylpyrimidine-5-carboxamide] it was 106%.
Turning to `O=C(N[C@H]1C2CC3CC1C[C@@](O)(C3)C2)c1cnc(N2CCOCC2)nc1N1CCOCC1` [compound 32], the inhibition at 30 µM came out at 97%. In addition, the IC50 (recombinant N terminal 6-His tagged full length human 11βHSD1, cortisone 160 nM, 25 minutes at 37° C.) was determined as 220 nM.
As to `O=C(N[C@H]1C2CC3CC1C[C@@](O)(C3)C2)c1cnc(NC2CCOCC2)nc1[C@H]1CCCO1` [Example 174, N-[(2r,5s)-5-hydroxyadamantan-2-yl]-2-(oxan-4-ylamino)-4-[(2R)-oxolan-2-yl]pyrimidine-5-carboxamide], the inhibition at 30 µM came to 95%.
With `O=C(N[C@H]1C2CC3CC1C[C@@](O)(C3)C2)c1cnc(N2CCOC(CO)C2)nc1C1CC1` (stereo partly drawn) [Example 59, 4-cyclopropyl-N-[(2r,5s)-5-hydroxyadamantan-2-yl]-2-[2-(hydroxymethyl)morpholin-4-yl]pyrimidine-5-carboxamide], the inhibition at 30 µM was 95.6%.
For the compound `COCCN1CCN(c2ncc(C(=O)N[C@H]3C4CC5CC3C[C@](O)(C5)C4)c(C3CCCC3)n2)CC1` [Example 125, 4-cyclopentyl-N-[(2r,5s)-5-hydroxyadamantan-2-yl]-2-[4-(2-methoxyethyl)piperazin-1-yl]pyrimidine-5-carboxamide], the inhibition at 30 µM was found to be 95%.
Regarding `O=C(N[C@H]1C2CC3CC1C[C@@](O)(C3)C2)c1cnc(NC2COC2)nc1C1CCCO1` (stereo partly drawn) [Example 164, N-[(2r,5s)-5-hydroxyadamantan-2-yl]-2-(oxetan-3-ylamino)-4-(oxolan-2-yl)pyrimidine-5-carboxamide], the inhibition at 30 µM amounted to 98.9%.
Same read-out and setting: in the case of `O=C(N[C@H]1C2CC3CC1C[C@@](O)(C3)C2)c1cnc(N2CC3CC2CS3)nc1C1CC1` [Example 46, 4-Cyclopropyl-N-[(2r,5s)-5-hydroxyadamantan-2-yl]-2-(3-thia-6-azabicyclo[2.2.1]heptan-6-yl)pyrimidine-5-carboxamide] it was 104%; in that of `CCOc1nc(N2C[C@@H](C)O[C@@H](C)C2)ncc1C(=O)N[C@H]1C2CC3CC1C[C@@](O)(C3)C2` [Example 209, 2-[(2S,6R)-2,6-dimethylmorpholin-4-yl]-4-ethoxy-N-[(2r,5s)-5-hydroxyadamantan-2-yl]pyrimidine-5-carboxamide], 99.4%.
Turning to `O=C(N[C@H]1C2CC3CC1C[C@@](O)(C3)C2)c1cnc(N2CCS(=O)(=O)CC2)nc1C1CCC1` [Example 83, 4-Cyclobutyl-2-(1,1-dioxo-1,4-thiazinan-4-yl)-N-[(2r,5s)-5-hydroxyadamantan-2-yl]pyrimidine-5-carboxamide], the inhibition at 30 µM came out at 103%.
As to `CCCSc1nc(N2CCN(C(C)=O)CC2)ncc1C(=O)NC1C2CC3CC(C2)CC1C3` (stereo not drawn) [Example 27, 2-(4-Acetylpiperazin-1-yl)-N-(2-adamantyl)-4-propylsulfanyl-pyrimidine-5-carboxamide], the inhibition at 30 µM is 95.5%.
In the case of `CC(C)Oc1nc(OC2CCC2)ncc1C(=O)N[C@H]1C2CC3CC1C[C@@](O)(C3)C2` [Example 218, 2-(cyclobutyloxy)-N-[(2r,5s)-5-hydroxytricyclo[3.3.1.13,7]dec-2-yl]-4-(1-methylethoxy)pyrimidine-5-carboxamide], the inhibition at 30 µM is 96%.
Take `O=C(N[C@H]1C2CC3CC1C[C@@](O)(C3)C2)c1cnc(OC2CCCC2)nc1C1CCC1` [Example 106, 4-cyclobutyl-2-(cyclopentyloxy)-N-[(2r,5s)-5-hydroxyadamantan-2-yl]pyrimidine-5-carboxamide]: the inhibition at 30 µM amounted to 101%.
Turning to `CC(C)Oc1ncc(C(=O)N[C@H]2C3CC4CC2C[C@@](O)(C4)C3)c([C@@H]2CCCO2)n1` [Example 181], the inhibition at 30 µM is 95%.
On to `Cc1ncc(C(=O)N[C@H]2C3CC4CC2C[C@@](O)(C4)C3)c(OC2CCCC2)n1` [Example 204, 4-Cyclopentyloxy-N-[(2r,5s)-5-hydroxyadamantan-2-yl]-2-methylpyrimidine-5-carboxamide], for which the inhibition at 30 µM came to 106%.
For `Nc1ncc(C(=O)N[C@H]2C3CC4CC2C[C@@](O)(C4)C3)c(C2CC2)n1` [Example 49, 2-Amino-4-cyclopropyl-N-[(2r,5s)-5-hydroxyadamantan-2-yl]pyrimidine-5-carboxamide], the inhibition at 30 µM worked out at 99.3%.
Consider `O=C(N[C@H]1C2CC3CC1C[C@@](O)(C3)C2)c1cnc(N2CC3CC2C[S+]3[O-])nc1C1CC1` (stereo partly drawn) [Example 47, 4-Cyclopropyl-N-[(2r,5s)-5-hydroxyadamantan-2-yl]-2-(3-oxo-3 ?4-thia-6-azabicyclo[2.2.1]heptan-6-yl)pyrimidine-5-carboxamide], for which the inhibition at 30 µM worked out at 97.3%.
Still for that read-out and setting: with `CSc1ncc(C(=O)N[C@H]2C3CC4CC2C[C@@](O)(C4)C3)c([C@H]2CCCO2)n1` [Example 166, N-[(2r,5s)-5-hydroxyadamantan-2-yl]-2-methylsulfanyl-4-[(2R)-oxolan-2-yl]pyrimidine-5-carboxamide] the figure was 102%; with `O=C(N[C@H]1C2CC3CC1C[C@@](O)(C3)C2)c1cnc(NC2CCOCC2)nc1C1CCC1` [Example 96, 4-cyclobutyl-N-[(2r,5s)-5-hydroxyadamantan-2-yl]-2-(tetrahydro-2H-pyran-4-ylamino)pyrimidine-5-carboxamide], 97.4%.
